One test has as its system Ehrlich ascites cells. As to the kind of experiment: Loss of viability of Ehrlich ascites cells on incubation. The conditions noted are these: read-out: reduction of viability of Ehrlich ascites cells.
Another test concerns EAC cells. In words: Tumor growth inhibition study. The note with it: individually, at the concentrations mentioned in Table 7.

Protocol for EAC cells: Tumor growth inhibition study: For this study, the total number of EAC cells was counted. The ascites fluid containing cells were quantitatively removed from peritoneal cavity of two mice for a particular drug combination. The cavity was further washed twice with a fixed volume of 0.9% NaCl. The washing and the ascites fluid containing the cells were pooled and centrifuged at 2000×g for 5 min. The packed cell volumes were noted. A fixed amount of aliquot from the packed cells was appropriately diluted, and the number of cells was counted in a hemocytometer. Averages (X^−±SEM) were made of these two parameters, and percentage inhibitions [(1−T/C)×100] were calculated for each dose of different test combinations.

As to `COc1ccc2[nH]cc(CCNC(C)=O)c2c1` [melatonin], the cytotoxicity at 200 µM in the test on Ehrlich ascites cells is around 10%. `O=C1O[C@H]([C@@H](O)CO)C(O)=C1O` [ascorbic acid, reference compound]: the “effect on EAC cells inoculated mice” value in the test on EAC cells is reported as “no effect”. The same measure, in the same setting: the same measure for `CN(CC(=O)O)C(=N)N` [creatine]: “no effect”.

The values above are taken from patent US9198896B2 (priority 2006, dated 2015).
